One series deals with PDE-3. The conditions noted are these: cited from earlier work.
The subject of a further series is reconstituted sarcomeres. The series is described as follows: sarcomere component swap experiment. The conditions noted are these: four myosin S1/thin filament combinations; 1 and 2 at 40 μM. In kind it is biochemical, bovine, rabbit.
A further series addresses fast skeletal myofibrils (Oryctolagus cuniculus, UniProt P02586+P02643). Kind of series: fast skeletal myofibril ATPase assay. The series is classed as biochemical, rabbit.
The next series has as its target smooth muscle myosin (Gallus gallus, UniProt P10587). Kind of series: smooth muscle myosin ATPase assay. In kind it is biochemical, chicken.
In series [1] the test system is adult rat ventricular myocytes. Kind of series: rat cardiomyocyte contractility assay. In kind it is cell-based. The conditions noted are these: 10 μM, 1 Hz, 37 °C, vs untreated cells.
In series [2] the test system is adult rat ventricular myocytes. The series is described as follows: cardiomyocyte calcium transient experiments. In kind it is cell-based. The conditions noted are these: 10 μM, Fura dye.
The next series has as its target slow skeletal myofibrils (Bos taurus, UniProt P63315). The series is described as follows: slow skeletal myofibril ATPase assay. In kind it is biochemical, bovine.
A short description of series [3]: solubility in the PDE-3 buffer solution. In kind it is physicochemical.
Another series deals with phosphodiesterase 3a (Homo sapiens, UniProt Q14432). Kind of series: PDE-3 inhibition assay. The series is classed as biochemical.
Sequence of phosphodiesterase 3a (Q14432 whole entry): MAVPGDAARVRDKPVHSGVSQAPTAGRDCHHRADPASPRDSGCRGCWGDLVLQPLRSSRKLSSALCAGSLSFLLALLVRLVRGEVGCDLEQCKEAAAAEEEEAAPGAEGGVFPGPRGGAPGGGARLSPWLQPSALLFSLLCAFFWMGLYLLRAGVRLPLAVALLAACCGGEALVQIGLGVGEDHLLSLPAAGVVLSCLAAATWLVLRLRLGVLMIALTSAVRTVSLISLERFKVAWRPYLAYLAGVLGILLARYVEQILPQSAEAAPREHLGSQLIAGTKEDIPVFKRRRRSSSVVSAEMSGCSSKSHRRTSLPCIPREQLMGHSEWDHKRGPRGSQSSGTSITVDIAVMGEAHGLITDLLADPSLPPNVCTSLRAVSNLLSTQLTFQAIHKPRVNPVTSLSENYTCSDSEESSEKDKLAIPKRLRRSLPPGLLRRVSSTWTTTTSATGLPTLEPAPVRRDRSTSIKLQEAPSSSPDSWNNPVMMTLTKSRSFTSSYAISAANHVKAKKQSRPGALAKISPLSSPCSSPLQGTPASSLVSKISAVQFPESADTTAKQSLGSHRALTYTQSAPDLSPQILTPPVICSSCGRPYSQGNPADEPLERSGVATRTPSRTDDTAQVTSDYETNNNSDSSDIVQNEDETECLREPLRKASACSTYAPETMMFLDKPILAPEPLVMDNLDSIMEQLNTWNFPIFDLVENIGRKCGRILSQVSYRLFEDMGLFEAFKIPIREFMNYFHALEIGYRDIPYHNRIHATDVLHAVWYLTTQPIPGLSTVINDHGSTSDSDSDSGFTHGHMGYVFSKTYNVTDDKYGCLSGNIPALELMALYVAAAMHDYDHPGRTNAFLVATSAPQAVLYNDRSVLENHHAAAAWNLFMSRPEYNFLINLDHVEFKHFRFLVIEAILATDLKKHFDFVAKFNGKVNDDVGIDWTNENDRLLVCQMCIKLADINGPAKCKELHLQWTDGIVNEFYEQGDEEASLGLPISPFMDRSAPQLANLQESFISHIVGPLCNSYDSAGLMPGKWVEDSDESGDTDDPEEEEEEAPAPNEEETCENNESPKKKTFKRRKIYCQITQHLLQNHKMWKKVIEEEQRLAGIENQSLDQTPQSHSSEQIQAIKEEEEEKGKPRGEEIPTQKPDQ
Another series in a line: solubility assessment. In kind it is physicochemical. The conditions noted are these: monopotassium phosphate JP2 buffer, pH 6.8.
The nature of series [4]: rat pharmacokinetic assessment, IV. The series is classed as in vivo. The conditions noted are these: dosed IV in rats.

Values after ≈ are worked out from the molar mass of the structure shown. “Also recorded” adds a separate entry of the source.

As usually defined, the solubility is how much of the substance goes into solution per volume. One may read the IC50 as the point on the concentration scale where inhibition reaches its midpoint. A lower IC50 goes with greater potency in that assay.

Sequence of smooth muscle myosin (P10587 whole entry): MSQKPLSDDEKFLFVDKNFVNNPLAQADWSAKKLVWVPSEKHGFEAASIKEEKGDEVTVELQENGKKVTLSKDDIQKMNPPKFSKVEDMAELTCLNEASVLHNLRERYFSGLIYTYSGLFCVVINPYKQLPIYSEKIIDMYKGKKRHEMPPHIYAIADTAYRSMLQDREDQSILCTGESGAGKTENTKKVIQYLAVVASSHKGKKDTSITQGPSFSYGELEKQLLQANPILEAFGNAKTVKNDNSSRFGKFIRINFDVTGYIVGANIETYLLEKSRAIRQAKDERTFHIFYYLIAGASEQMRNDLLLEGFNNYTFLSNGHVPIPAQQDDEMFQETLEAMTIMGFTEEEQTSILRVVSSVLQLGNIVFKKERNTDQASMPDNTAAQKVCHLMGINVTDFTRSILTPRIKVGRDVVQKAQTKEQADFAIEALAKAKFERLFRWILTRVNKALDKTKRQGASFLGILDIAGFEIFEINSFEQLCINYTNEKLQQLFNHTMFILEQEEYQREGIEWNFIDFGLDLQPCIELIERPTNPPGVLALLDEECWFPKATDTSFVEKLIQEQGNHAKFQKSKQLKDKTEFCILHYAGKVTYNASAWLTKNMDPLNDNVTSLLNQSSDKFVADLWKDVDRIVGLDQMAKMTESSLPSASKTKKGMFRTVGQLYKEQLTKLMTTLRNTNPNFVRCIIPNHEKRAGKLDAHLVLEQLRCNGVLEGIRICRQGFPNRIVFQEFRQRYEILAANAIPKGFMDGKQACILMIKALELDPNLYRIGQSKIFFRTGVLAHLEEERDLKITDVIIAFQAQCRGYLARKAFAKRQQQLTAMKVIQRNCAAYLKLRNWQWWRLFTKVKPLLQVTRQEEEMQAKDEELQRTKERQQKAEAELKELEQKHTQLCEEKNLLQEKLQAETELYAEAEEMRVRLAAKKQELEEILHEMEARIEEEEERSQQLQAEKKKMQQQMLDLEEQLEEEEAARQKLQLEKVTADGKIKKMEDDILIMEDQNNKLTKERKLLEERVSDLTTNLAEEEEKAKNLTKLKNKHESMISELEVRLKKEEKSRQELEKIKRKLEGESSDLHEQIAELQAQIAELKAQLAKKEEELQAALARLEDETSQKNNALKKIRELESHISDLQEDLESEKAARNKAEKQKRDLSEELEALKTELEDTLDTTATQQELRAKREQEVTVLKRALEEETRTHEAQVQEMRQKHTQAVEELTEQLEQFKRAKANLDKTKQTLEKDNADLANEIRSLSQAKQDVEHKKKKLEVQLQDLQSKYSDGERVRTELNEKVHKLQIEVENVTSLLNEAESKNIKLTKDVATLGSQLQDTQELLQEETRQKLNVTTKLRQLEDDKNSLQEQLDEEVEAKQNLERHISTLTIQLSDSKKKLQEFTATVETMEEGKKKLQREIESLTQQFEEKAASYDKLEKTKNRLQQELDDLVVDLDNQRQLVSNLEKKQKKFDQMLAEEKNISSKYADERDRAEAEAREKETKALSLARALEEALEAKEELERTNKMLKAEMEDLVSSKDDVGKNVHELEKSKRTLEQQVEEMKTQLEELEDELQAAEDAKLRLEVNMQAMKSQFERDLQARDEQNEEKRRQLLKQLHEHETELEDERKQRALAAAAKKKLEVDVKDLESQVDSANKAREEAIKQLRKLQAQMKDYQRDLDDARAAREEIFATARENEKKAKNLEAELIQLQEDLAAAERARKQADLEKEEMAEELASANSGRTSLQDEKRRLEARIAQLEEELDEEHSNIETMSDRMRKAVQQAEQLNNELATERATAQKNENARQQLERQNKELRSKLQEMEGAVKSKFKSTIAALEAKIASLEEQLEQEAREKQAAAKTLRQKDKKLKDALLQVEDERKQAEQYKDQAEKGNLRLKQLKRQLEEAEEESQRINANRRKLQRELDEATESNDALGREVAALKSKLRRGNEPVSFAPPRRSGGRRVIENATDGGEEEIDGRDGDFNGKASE
Sequence of smooth muscle myosin (P02607 whole entry partner): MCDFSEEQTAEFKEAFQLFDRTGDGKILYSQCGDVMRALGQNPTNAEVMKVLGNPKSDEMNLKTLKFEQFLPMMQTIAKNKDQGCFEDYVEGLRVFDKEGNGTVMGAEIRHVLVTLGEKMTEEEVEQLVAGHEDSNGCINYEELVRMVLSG
Sequence of smooth muscle myosin (P02612 whole entry partner): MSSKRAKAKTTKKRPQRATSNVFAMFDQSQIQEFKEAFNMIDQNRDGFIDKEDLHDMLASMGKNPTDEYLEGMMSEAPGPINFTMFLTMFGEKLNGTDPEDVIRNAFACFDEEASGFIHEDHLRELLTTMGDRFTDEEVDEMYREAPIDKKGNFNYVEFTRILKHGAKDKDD
Sequence of fast skeletal myofibrils (P02586 whole entry): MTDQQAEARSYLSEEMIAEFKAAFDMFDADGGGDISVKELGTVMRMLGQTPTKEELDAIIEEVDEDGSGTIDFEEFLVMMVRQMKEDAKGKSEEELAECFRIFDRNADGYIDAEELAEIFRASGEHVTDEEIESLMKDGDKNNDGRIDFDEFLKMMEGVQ
Sequence of fast skeletal myofibrils (P02643 whole entry): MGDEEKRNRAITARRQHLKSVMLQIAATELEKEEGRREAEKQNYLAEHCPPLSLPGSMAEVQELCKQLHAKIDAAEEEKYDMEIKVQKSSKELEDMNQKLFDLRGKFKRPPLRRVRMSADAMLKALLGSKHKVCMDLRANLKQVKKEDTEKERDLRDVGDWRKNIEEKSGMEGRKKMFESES
Sequence of fast skeletal myofibrils (P02641 whole entry partner): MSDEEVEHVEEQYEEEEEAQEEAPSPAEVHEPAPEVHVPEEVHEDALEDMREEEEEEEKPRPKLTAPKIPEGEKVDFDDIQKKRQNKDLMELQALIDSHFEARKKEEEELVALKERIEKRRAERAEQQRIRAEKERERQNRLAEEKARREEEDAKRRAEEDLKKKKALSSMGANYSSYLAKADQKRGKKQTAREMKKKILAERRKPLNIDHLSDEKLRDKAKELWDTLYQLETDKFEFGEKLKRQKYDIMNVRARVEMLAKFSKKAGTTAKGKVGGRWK

`C[C@@H]1CC(=O)NN=C1c1ccc(NN=C(C#N)C#N)cc1` [Levosimendan]: the “PDE-3 inhibition in words” value in the series with PDE-3 is listed as “single digit nanomolar PDE-3 inhibition”.

As for `O=c1[nH]c2ccc(S(=O)(=O)Nc3ccc(-c4ccccc4)cc3)cc2[nH]1` [compound 1], the “activation of reconstituted sarcomeres in words” value in the series on reconstituted sarcomeres is recorded as “Only the reconstituted sarcomeres that contain the cardiac thin filament showed activation”.

As to `O=c1[nH]c(=O)c2cc(S(=O)(=O)Nc3ccc(N4CCCCCC4)cc3)ccc2[nH]1` [compound 2], the “fast skeletal myofibril activity in words” value on fast skeletal myofibrils was “inactive; also recorded: did not activate”. Besides, at smooth muscle myosin, the “smooth muscle myosin activity in words” value is “inactive; also recorded: did not activate”. Also, the “myocyte fractional shortening in words” value in [1] is recorded as “significantly increased myocyte fractional shortening”. For the same molecule, the “intracellular calcium concentrations in words” value in [2] is “without changing intracellular calcium concentrations”. Moreover, the “activation of reconstituted sarcomeres in words” value in the series with reconstituted sarcomeres is listed as “Only the reconstituted sarcomeres that contain the cardiac thin filament showed activation”.

For `O=c1[nH]c(=O)c2cc(S(=O)(=O)Nc3ccc(-c4ccccc4)cc3)ccc2[nH]1` [compound 3], at slow skeletal myofibrils, the “slow skeletal myofibril AC40” value was under 0.1 µM. Besides, the “fast skeletal myofibril activity in words” value on fast skeletal myofibrils is listed as “did not activate”. On smooth muscle myosin, the “smooth muscle myosin activity in words” value is “did not activate”.

`Cn1c(=O)[nH]c(=O)c2cc(S(=O)(=O)Nc3ccc(-c4ccccc4)cc3)ccc21` [compound 5] returned a solubility in [3] of 1.2 µM (≈ 0.489 µg/mL).

For the molecule `C[C@@H]1C[C@@H](C)CN(c2ccc(NS(=O)(=O)c3ccc4c(c3)c(=O)[nH]c(=O)n4C)cn2)C1` [compound 13, N-(6-((3R,5R)-3,5-Dimethylpiperidin-1-yl)pyridin-3-yl)-1-methyl-2,4-dioxo-1,2,3,4-tetrahydroquinazoline-6-sulfonamide], the midpoint of inhibition against phosphodiesterase 3a, the IC50, lay at 7 µM.

`CNc1cc2nc(C)[nH]c(=O)c2cc1S(=O)(=O)Nc1ccc(N2C[C@H](C)C[C@@H](C)C2)nc1` [compound 17, N-(6-((3R,5R)-3,5-Dimethylpiperidin-1-yl)pyridin-3-yl)-2-methyl-7-(methylamino)-4-oxo-3,4-dihydroquinazoline-6-sulfonamide] displayed a solubility at 12 h in the series “solubility assessment” of 6.7 µM (≈ 3.06 µg/mL). Also, the “clearance relative to hepatic blood flow” value in [4] is < 25 % of hepatic blood flow (Qh).
